Test [1] deals with T1, JAK3: Recombinant human kinase domain (Homo sapiens, UniProt P52333).
T1 construct: JAK3: Recombinant human kinase domain from Millipore (Cat #14-629) or prepared; purchased Millipore 14-629
Description: Determination of IC50 of Janus Kinase (JAK) inhibition, radioactive end-point 33P-ATP assay, JAK3. The following applies: ATP 1.5 uM, peptide 50 uM, 20 minutes, read-out: JAK3-INHIB-DR/v1~NO ADDITIVE~Enzyme_Conc = 100. In kind it is biochemical.

The target in test [2] is T2, recombinant human SYK360-635 (Homo sapiens, UniProt P43405).
T2 construct: made in house
In words: Determination of IC50 of Spleen Tyrosine Kinase (SYK) inhibition, 33P ATP filtration assay. The following applies: SYK aa 360-635 0.5 nM; ATP 20 μM, peptide 5 μM, 0.1% BSA; read-out: SYK_ENZYME_FILTRATION/v1, BSA. The class given is biochemical.
Description: All concentrations were final in the reaction mixture and all incubations were carried at room temperature. […] SYK Assay Information Determination of IC50 of Spleen Tyrosine Kinase (SYK) Inhibition:
SYK kinase assay is a standard kinase assay adapted to a 96 well plate format. This assay is performed in 96-well format for IC50 determination with 8 samples which represented 10 half log dilutions and a 40 μL reaction volume. The assay measures the incorporation of radiolabeled ^33P γATP into an N-terminally biotinylated peptide substrate, derived from naturally occurring phosphoacceptor consensus sequence (Biotin-11aa DY*E). […] Experimental Method:
DMSO and the mixture was incubated for 10 min at RT.
The kinase reaction was initiated by the addition of 10 μL 4× substrate cocktail containing the DYE peptide substrate [0 or 5 μM], ATP [20 μM] and ^33PγATP [2 μCi/r×n]. After incubation at 30° C. for 15 min, the reaction was terminated by the transfer of 25 μL pf the reaction sample to a 96 well 0.65 μm Millipore MADVNOB membrane/plate containing 200 μL 5 mM EDTA and 20% Streptavidine coated beads in PBS.
The unbound radionucleotides were washed under vacuum with 3×250 μL 2M NaCl; 2×250 μL 2M NaCl+1% phosphoric acid; 1×250 μL H2O. After the last wash membrane/plates were transferred to an adaptor plate, heat dried for 15 min at 60° C., and 50 μL scintillation cocktail was added to each well and 4 h later the amount of radioactivity was counted in a top counter.

T1 sequence (P52333 822-1111 limits assumed): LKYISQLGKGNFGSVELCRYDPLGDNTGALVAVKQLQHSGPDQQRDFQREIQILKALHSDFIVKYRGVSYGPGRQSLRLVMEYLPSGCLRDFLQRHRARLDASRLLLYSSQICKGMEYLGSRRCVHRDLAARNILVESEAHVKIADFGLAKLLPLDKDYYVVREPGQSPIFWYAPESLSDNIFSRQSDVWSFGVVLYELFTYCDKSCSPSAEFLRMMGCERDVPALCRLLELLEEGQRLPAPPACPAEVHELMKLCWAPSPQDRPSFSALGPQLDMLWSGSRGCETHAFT

As for `CC(C)NC(=O)c1c[nH]c2ncc(-c3nn(C)c4cc(F)cc(F)c34)nc12` [Example I-101, 2-(4,6-Difluoro-1-methyl-1H-indazol-3-yl)-5H-pyrrolo[2,3-b]pyrazine-7-carboxylic acid isopropylamide], the IC50 in test [1] came to 0.0108 µM; in test [2] it was 0.0138 µM.

Turning to `COC[C@H](C)NC(=O)c1c[nH]c2ncc(-c3nn(CCn4cccn4)c4cc(F)ccc34)nc12` [Example I-244, 2-[6-Fluoro-1-(2-pyrazol-1-yl-ethyl)-1H-indazol-3-yl]-5H-pyrrolo[2,3-b]pyrazine-7-carboxylic acid ((S)-2-methoxy-1-methyl-ethyl)-amide], the IC50 in test [1] stood at 0.00546 µM; in test [2] it was 0.324 µM.

Regarding `COC[C@H](C)NC(=O)c1c[nH]c2ncc(-n3cnc4ccc(Cl)cc43)nc12` [Example I-224, 2-(6-Chloro-bcnzoimidazol-1-yl)-5H-pyrrolo[2,3-b]pyrazine-7-carboxylic acid ((S)-2-methoxy-1-methyl-ethyl)-amide], the IC50 in test [1] was 0.346 µM; in test [2] it was 0.357 µM.

As to `C[C@H](NC(=O)c1c[nH]c2ncc(-c3nn(C)c4cc(F)ccc34)nc12)c1cccc(OC(F)(F)F)c1` [Example I-253, 2-(6-Fluoro-1-methyl-1H-indazol-3-yl)-5H-pyrrolo[2,3-b]pyrazine-7-carboxylic acid [(S)-1-(3-trifluoromethoxy-phenyl)-ethyl]-amide], the IC50 in test [1] was greater than 1 µM; in test [2] it was 6.37 µM.

Consider `CC(C)NC(=O)c1c[nH]c2ncc(-c3nn(C)c4c3CCC4)nc12` [Example I-282, 2-(1-Methyl-1,4,5,6-tetrahydro-cyclopentapyrazol-3-yl)-5H-pyrrolo[2,3-b]pyrazine-7-carboxylic acid isopropylamide], for which the results for the IC50 in test [1] and in test [2] were 0.0127 µM and 0.0319 µM, respectively.

Take `CCCC(C)NC(=O)c1c[nH]c2ncc(-c3nn(C)c4cc(F)ccc34)nc12` (stereo not shown) [Example I-184, 2-(6-Fluoro-1-methyl-1H-indazol-3-yl)-5H-pyrrolo[2,3-b]pyrazine-7-carboxylic acid (1-methyl-butyl)-amide]: the IC50 was 0.00496 µM in test [1] and 0.0372 µM in test [2].

As to `COC[C@@H](NC(=O)c1c[nH]c2ncc(-c3nn(C)c4cc(F)ccc34)nc12)[C@H](C)O` [Example I-188, 2-(6-Fluoro-1-methyl-1H-indazol-3-yl)-5H-pyrrolo[2,3-b]pyrazine-7-carboxylic acid ((1R,2S)-2-hydroxy-1-methoxymethyl-propyl)-amide], the IC50 in test [1] was 0.0317 µM; in test [2], 0.168 µM.

With `CC(C)(C)NC(=O)c1c[nH]c2ncc(-c3cccc4[nH]ncc34)nc12` [Example I-399, 2-(1H-Indazol-4-yl)-5H-pyrrolo[2,3-b]pyrazine-7-carboxylic acid tert-butylamide], the IC50 in test [1] was determined as 0.0181 µM; in test [2] it was 0.00473 µM.

As for `Cn1nc(-c2cnc3[nH]cc(C(=O)NC4CCS(=O)(=O)C4)c3n2)c2ccc(Cl)cc21` (stereo not shown) [Example I-113, 2-(6-Chloro-1-methyl-1H-indazol-3-yl)-5H-pyrrolo[2,3-b]pyrazine-7-carboxylic acid (1,1-dioxo-tetrahydro-1λ6-thiophen-3-yl)-amide], the IC50 in test [1] stood at 0.256 µM; in test [2], 0.198 µM.

With `CC(C)NC(=O)c1c[nH]c2ncc(-c3nn(CCCN4CCOCC4)c4cc(Cl)cc(F)c34)nc12` [Example I-132, 2-[6-Chloro-4-fluoro-1-(3-morpholin-4-yl-propyl)-1H-indazol-3-yl]-5H-pyrrolo[2,3-b]pyrazine-7-carboxylic acid isopropylamide], the IC50 in test [1] was found to be 0.00472 µM; in test [2], 0.0234 µM.

As to `C[C@@H](NC(=O)c1c[nH]c2ncc(-c3nn(C)c4cc(F)ccc34)nc12)C(C)(C)F` [Example I-44, 2-(6-Fluoro-1-methyl-1H-indazol-3-yl)-5H-pyrrolo[2,3-b]pyrazine-7-carboxylic acid ((R)-2-fluoro-1,2-dimethyl-propyl)-amide], the IC50 in test [1] amounted to 0.0139 µM; in test [2], 0.016 µM.

With `CC(NC(=O)c1c[nH]c2ncc(-c3nn(CCN(C)C)c4cc(Cl)ccc34)nc12)c1cccnc1` (stereo not shown) [Example I-246, 2-[6-Chloro-1-(2-dimethylamino-ethyl)-1H-indazol-3-yl]-5H-pyrrolo[2,3-b]pyrazine-7-carboxylic acid (1-pyridin-3-yl-ethyl)-amide], the IC50 came to 0.0415 µM in test [1] and 0.354 µM in test [2].

In the case of `C[C@@H](CC#N)NC(=O)c1c[nH]c2ncc(-c3nn(C)c4cc(Cl)ccc34)nc12` [Example I-142, 2-(6-Chloro-1-methyl-1H-indazol-3-yl)-5H-pyrrolo[2,3-b]pyrazine-7-carboxylic acid ((S)-2-cyano-1-methyl-ethyl)-amide], the IC50 in test [1] worked out at 0.00804 µM; in test [2], 0.0205 µM.

On to `CC(C)NC(=O)c1c[nH]c2ncc(-c3nn(C)c4cc(Cl)cc(F)c34)nc12` [Example I-127, 2-(6-Chloro-4-fluoro-1-methyl-1H-indazol-3-yl)-5H-pyrrolo[2,3-b]pyrazine-7-carboxylic acid isopropylamide], for which the results for the IC50 in test [1] and in test [2] were 0.011 µM and 0.0226 µM, respectively.

As for `Cn1nc(-c2cnc3[nH]cc(C(=O)NC4CCOCC4)c3n2)c2ccc(Cl)cc21` [Example I-112, 2-(6-Chloro-1-methyl-1H-indazol-3-yl)-5H-pyrrolo[2,3-b]pyrazine-7-carboxylic acid (tetrahydro-pyran-4-yl)-amide], the IC50 was determined as 0.0146 µM in test [1] and 0.0333 µM in test [2].

Consider `CC(O)C(C)NC(=O)c1c[nH]c2ncc(-c3nn(C)c4cc(Cl)ccc34)nc12` (stereo not shown) [Example I-172, 2-(6-Chloro-1-methyl-1H-indazol-3-yl)-5H-pyrrolo[2,3-b]pyrazine-7-carboxylic acid (2-hydroxy-1-methyl-propyl)-amide], for which the IC50 worked out at 0.00465 µM in test [1] and 0.0135 µM in test [2].

For the molecule `Cn1nc(-c2cnc3[nH]cc(C(=O)NC4CCOC4)c3n2)c2ccc(Cl)cc21` (stereo not shown) [Example I-107, 2-(6-Chloro-1-methyl-1H-indazol-3-yl)-5H-pyrrolo[2,3-b]pyrazine-7-carboxylic acid (tetrahydro-furan-3-yl)-amide], the values for the IC50 in test [1] and in test [2] were 0.0115 µM and 0.0208 µM, respectively.

Regarding `C[C@@H](COC(F)F)NC(=O)c1c[nH]c2ncc(-c3nn(C)c4cc(F)ccc34)nc12` [Example I-193, 2-(6-Fluoro-1-methyl-1H-indazol-3-yl)-5H-pyrrolo[2,3-b]pyrazine-7-carboxylic acid ((S)-2-difluoromethoxy-1-methyl-ethyl)-amide], the IC50 in test [1] worked out at 0.000795 µM; in test [2] it was 0.14 µM.

Consider `CC(C)(C)NC(=O)c1c[nH]c2ncc(-c3nn(CCCN4CC(F)(F)C4)c4ccc(OC(F)F)cc34)nc12` [Example I-296, 2-{1-[3-(3,3-Difluoro-azetidin-1-yl)-propyl]-5-difluoromethoxy-1H-indazol-3-yl}-5H-pyrrolo[2,3-b]pyrazine-7-carboxylic acid tert-butylamide], for which the IC50 was found to be 0.0787 µM in test [1] and 0.0139 µM in test [2].

`Cn1nc(-c2cnc3[nH]cc(C(=O)N[C@H]4CC[C@@H](N)CC4)c3n2)c2ccc(Cl)cc21` [Example I-145, 2-(6-Chloro-1-methyl-1H-indazol-3-yl)-5H-pyrrolo[2,3-b]pyrazine-7-carboxylic acid (cis-4-amino-cyclohexyl)-amide]: the results for the IC50 in test [1] and in test [2] were 0.0174 µM and 0.0019 µM, respectively.

Turning to `CC(NC(=O)c1c[nH]c2ncc(-c3nn(C)c4cc(Cl)ccc34)nc12)C(F)(F)F` (stereo not shown) [Example I-160, 2-(6-Chloro-1-methyl-1H-indazol-3-yl)-5H-pyrrolo[2,3-b]pyrazine-7-carboxylic acid (2,2,2-trifluoro-1-methyl-ethyl)-amide], the IC50 in test [1] came out at 0.0194 µM; in test [2] it was 0.0373 µM.

Turning to `Cn1nc(-c2cnc3[nH]cc(C(=O)N[C@@H]4CCC[C@@H](C#N)C4)c3n2)c2ccc(Cl)cc21` (relative stereo) [Example I-156, 2-(6-Chloro-1-methyl-1H-indazol-3-yl)-5H-pyrrolo[2,3-b]pyrazine-7-carboxylic acid (trans-3-cyano-cyclohexyl)-amide], the IC50 in test [1] amounted to 0.00547 µM; in test [2], 0.0851 µM.

Take `Cn1nc(-c2cnc3[nH]cc(C(=O)NC(C)(C)C#N)c3n2)c2ccc(F)cc21` [Example I-377, 2-(6-Fluoro-1-methyl-1H-indazol-3-yl)-5H-pyrrolo[2,3-b]pyrazine-7-carboxylic acid (cyano-dimethyl-methyl)-amide]: the IC50 in test [1] is 0.0054 µM; in test [2], 0.00455 µM.

With `Cc1cc(C(C)NC(=O)c2c[nH]c3ncc(-c4nn(C)c5cc(F)ccc45)nc23)no1` (stereo not shown) [Example I-54, 2-(6-Fluoro-1-methyl-1H-indazol-3-yl)-5H-pyrrolo[2,3-b]pyrazine-7-carboxylic acid [1-(5-methyl-isoxazol-3-yl)-ethyl]-amide], the IC50 in test [1] stood at 0.014 µM; in test [2], 0.0777 µM.

In the case of `Cn1nc(-c2cnc3[nH]cc(C(=O)N[C@@H]4CC[C@@H](C#N)C4)c3n2)c2ccc(Cl)cc21` [Example I-36, 2-(6-Chloro-1-methyl-1H-indazol-3-yl)-5H-pyrrolo[2,3-b]pyrazine-7-carboxylic acid ((1R,3R)-3-cyano-cyclopentyl)-amide], the IC50 came to 0.019 µM in test [1] and 0.0272 µM in test [2].

Regarding `C[C@@H](NC(=O)c1c[nH]c2ncc(-c3nn(C)c4cc(F)ccc34)nc12)C1=NCCO1` [Example I-60, 2-(6-Fluoro-1-methyl-1H-indazol-3-yl)-5H-pyrrolo[2,3-b]pyrazine-7-carboxylic acid [(R)-1-(4,5-dihydro-oxazol-2-yl)-ethyl]-amide], the IC50 in test [1] is 0.0274 µM; in test [2] it was 0.0319 µM.

Source of the values: US8658646B2, “Pyrrolopyrazine kinase inhibitors” (Hoffmann-LaRoche Inc., priority 2011, dated 2014).
